Measurements published in the supplement of paper PMC10307832.

How the values were obtained:
Experiment in all cases: relative viability (nuclei count vs DMSO), 5 days (fraction); higher = more cells survive
PAC-1 + Trametinib = compound: C=CCc1cccc(/C=N/NC(=O)CN2CCN(Cc3ccccc3)CC2)c1O [PAC-1] + CC(=O)Nc1cccc(-n2c(=O)n(C3CC3)c(=O)c3c(Nc4ccc(I)cc4F)n(C)c(=O)c(C)c32)c1 [Trametinib] (partner 0.02 µM)
Method in brief: (§1)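 Medians of duplicate plates are given as relative viability. That measure is the nuclei count in treated wells divided by the count in vehicle wells. Counts were taken on 4× images of lung cancer cell lines in 1536-well plates, 5 days after pin-tool dosing the day after seeding with one drug alone or a fixed anchor-drug dose plus five library-drug doses (not always all listed) in √10 steps.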

BMX-IN-1 + Luminespib = compound: C=CC(=O)Nc1cc(-n2c(=O)ccc3cnc4ccc(-c5ccc(NS(C)(=O)=O)cc5)cc4c32)ccc1C [BMX-IN-1] + CCNC(=O)c1noc(-c2cc(C(C)C)c(O)cc2O)c1-c1ccc(CN2CCOCC2)cc1 [Luminespib] (partner 0.01 µM)
Method in brief: as §1

PAC-1 + Luminespib = compound: C=CCc1cccc(/C=N/NC(=O)CN2CCN(Cc3ccccc3)CC2)c1O [PAC-1] + CCNC(=O)c1noc(-c2cc(C(C)C)c(O)cc2O)c1-c1ccc(CN2CCOCC2)cc1 [Luminespib] (partner 0.01 µM)
Method in brief: as §1

PAC-1 + Crizotinib = compound: C=CCc1cccc(/C=N/NC(=O)CN2CCN(Cc3ccccc3)CC2)c1O [PAC-1] + C[C@@H](Oc1cc(-c2cnn(C3CCNCC3)c2)cnc1N)c1c(Cl)ccc(F)c1Cl [Crizotinib] (partner 1 µM)
Method in brief: as §1

PAC-1 + Phenformin = compound: C=CCc1cccc(/C=N/NC(=O)CN2CCN(Cc3ccccc3)CC2)c1O [PAC-1] + N=C(N)NC(=N)NCCc1ccccc1 [Phenformin] (partner 250 µM)
Method in brief: as §1

Cell Line	relative viability (PAC-1 + Trametinib; first compound 0.02 µM)	relative viability (PAC-1 + Trametinib; first compound 0.06325 µM)	relative viability (PAC-1 + Trametinib; first compound 0.2 µM)	relative viability (PAC-1 + Trametinib; first compound 2 µM)	relative viability (BMX-IN-1 + Luminespib; first compound 0.02 µM)	relative viability (BMX-IN-1 + Luminespib; first compound 0.2 µM)	relative viability (BMX-IN-1 + Luminespib; first compound 0.6325 µM)	relative viability (BMX-IN-1 + Luminespib; first compound 2 µM)	relative viability (PAC-1 + Luminespib; first compound 0.02 µM)	relative viability (PAC-1 + Luminespib; first compound 0.06325 µM)	relative viability (PAC-1 + Luminespib; first compound 0.2 µM)	relative viability (PAC-1 + Luminespib; first compound 2 µM)	relative viability (PAC-1 + Crizotinib; first compound 0.02 µM)	relative viability (PAC-1 + Crizotinib; first compound 0.06325 µM)	relative viability (PAC-1 + Crizotinib; first compound 0.2 µM)	relative viability (PAC-1 + Crizotinib; first compound 2 µM)	relative viability (PAC-1 + Phenformin; first compound 0.02 µM)	relative viability (PAC-1 + Phenformin; first compound 0.06325 µM)	relative viability (PAC-1 + Phenformin; first compound 0.2 µM)	relative viability (PAC-1 + Phenformin; first compound 2 µM)
LXF-289	0.7	0.718	0.705	0.675	0.816	0.809	0.825	0.671	0.683	0.731	0.758	0.756	0.833	0.807	0.789	0.835	0.52	0.53	0.501	0.511
NCI-H358	0.128	0.121	0.164	0.128	0.444	0.308	0.405	0.327	0.411	0.404	0.32	0.265	0.552	0.531	0.751	0.453	0.305	0.314	0.269	0.374
NCI-H838	0.46	0.509	0.459	0.528	0.245	0.291	0.302	0.294	0.254	0.374	0.238	0.301	0.776	0.758	0.801	0.92	0.509	0.585	0.46	0.572
NCI-H520	0.747	0.746	0.64	0.797	0.243	0.231	0.243	0.218	0.269	0.248	0.252	0.216	0.772	0.746	0.735	0.698	0.418	0.685	0.462	0.6
SW 1573	0.492	0.623	0.528	0.625	0.28	0.221	0.225	0.205	0.214	0.175	0.223	0.371	0.786	0.658	0.701	0.839	0.372	0.352	0.36	0.303
201T	0.732	0.717	0.687	0.717	1.07	1.1	1.09	0.98	1.03	1.05	1.09	1.04	1.07	1.09	1.02	1.05	0.43	0.47	0.468	0.453
NCI-H1437	0.555	0.511	0.494	0.525	1.41	1.23	1.15	1.16	1.15	1.13	1.06	0.907	0.883	0.913	0.85	0.68	0.302	0.275	0.264	0.339
NCI-H1975	0.391	0.424	0.325	0.349	0.253	0.21	0.481	0.159	0.242	0.188	0.253	0.167	0.919	0.916	0.944	1	0.404	0.389	0.401	0.447
RERF-LC-KJ	0.901	0.91	0.791	0.79	1.3	1.55	1.27	1.49	1.22	1.2	1.16	1.06	0.814	0.868	0.811	0.923	0.414	0.392	0.407	0.427
